Test results: paper PMC9412374, “Design, Synthesis, and Development of pyrazolo[1,5-a]pyrimidine Derivatives as a Novel Series of Selective PI3Kδ Inhibitors: Part I—Indole Derivatives” (Pharmaceuticals, 2022)
Several values for one entry are separate records, joined by “and”; a condition that tells them apart may be missing. Equal entries are not always repeated. Where two headings read alike, the source gives them in different places. Each block holds one molecule with its values, some of them ahead of it.

Legend:
[1] = target: T1, PI3Kδ (Homo sapiens, UniProt O00329); test: In vitro kinase inhibition assay for PI3K (ADP-Glo), PI3Kδ; assay type: biochemical; settings: recombinant kinase, mean of two independent experiments
T1 construct: purchased Merck Millipore
T1 sequence (P27986 whole entry): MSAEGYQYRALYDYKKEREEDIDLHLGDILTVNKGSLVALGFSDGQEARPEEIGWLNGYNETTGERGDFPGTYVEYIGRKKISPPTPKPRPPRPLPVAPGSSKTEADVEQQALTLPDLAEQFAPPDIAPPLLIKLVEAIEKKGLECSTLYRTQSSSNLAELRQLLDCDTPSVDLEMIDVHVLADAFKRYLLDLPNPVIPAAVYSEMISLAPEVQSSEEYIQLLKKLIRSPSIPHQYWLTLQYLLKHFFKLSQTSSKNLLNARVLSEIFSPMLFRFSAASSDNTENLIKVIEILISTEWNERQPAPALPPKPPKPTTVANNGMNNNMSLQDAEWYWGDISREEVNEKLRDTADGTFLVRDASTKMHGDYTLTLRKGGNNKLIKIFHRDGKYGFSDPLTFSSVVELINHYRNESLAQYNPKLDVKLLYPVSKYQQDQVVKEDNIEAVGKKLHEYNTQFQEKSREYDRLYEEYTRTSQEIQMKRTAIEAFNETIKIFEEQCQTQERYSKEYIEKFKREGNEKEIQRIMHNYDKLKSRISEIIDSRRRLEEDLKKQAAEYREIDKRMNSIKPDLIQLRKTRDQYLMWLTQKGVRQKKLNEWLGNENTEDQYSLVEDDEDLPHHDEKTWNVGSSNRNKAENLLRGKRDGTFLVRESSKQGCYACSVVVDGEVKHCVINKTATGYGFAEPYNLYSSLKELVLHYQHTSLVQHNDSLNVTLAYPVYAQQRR
T1 sequence (O00329 whole entry): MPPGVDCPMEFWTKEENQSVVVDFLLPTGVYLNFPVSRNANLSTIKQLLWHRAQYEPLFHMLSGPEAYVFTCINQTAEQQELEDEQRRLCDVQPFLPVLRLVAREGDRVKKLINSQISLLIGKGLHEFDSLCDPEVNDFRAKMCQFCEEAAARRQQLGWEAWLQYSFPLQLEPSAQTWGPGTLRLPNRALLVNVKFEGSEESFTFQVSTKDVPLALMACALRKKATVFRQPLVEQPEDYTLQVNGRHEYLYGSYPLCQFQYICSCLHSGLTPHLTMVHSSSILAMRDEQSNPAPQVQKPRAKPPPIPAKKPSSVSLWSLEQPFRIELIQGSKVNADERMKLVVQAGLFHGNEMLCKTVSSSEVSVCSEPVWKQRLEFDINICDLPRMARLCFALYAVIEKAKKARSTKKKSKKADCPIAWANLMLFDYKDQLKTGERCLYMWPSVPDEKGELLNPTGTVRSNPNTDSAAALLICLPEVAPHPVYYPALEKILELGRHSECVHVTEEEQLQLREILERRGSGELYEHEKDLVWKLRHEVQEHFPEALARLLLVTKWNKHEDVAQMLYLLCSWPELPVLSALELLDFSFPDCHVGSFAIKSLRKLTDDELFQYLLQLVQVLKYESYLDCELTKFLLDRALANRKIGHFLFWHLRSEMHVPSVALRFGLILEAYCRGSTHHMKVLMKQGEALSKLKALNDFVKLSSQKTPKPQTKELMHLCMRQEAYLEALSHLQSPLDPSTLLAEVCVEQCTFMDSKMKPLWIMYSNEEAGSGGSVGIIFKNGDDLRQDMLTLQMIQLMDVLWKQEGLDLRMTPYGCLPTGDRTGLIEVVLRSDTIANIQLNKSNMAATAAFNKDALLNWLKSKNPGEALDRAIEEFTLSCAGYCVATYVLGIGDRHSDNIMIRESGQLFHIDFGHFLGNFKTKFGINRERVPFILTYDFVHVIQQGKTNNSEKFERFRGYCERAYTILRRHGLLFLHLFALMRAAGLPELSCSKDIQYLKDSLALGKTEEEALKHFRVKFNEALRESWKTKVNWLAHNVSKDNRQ
Procedure: Tested compounds were dissolved in 100% DMSO, and obtained solutions were serially diluted in 1× reaction buffer. The recombinant kinase solution was diluted in a reaction mixture comprising 5× reaction buffer, respective compound solution (1 mM sodium diacetate 4,5-bisphosphate phosphatidylinositol (PIP2) solution in 40 mM Tris buffer), and water. In a 96-wells plate, 5 μL of compound solutions and 15 μL of the kinase solution in the reaction mixture were added per well. To initiate the interaction of chemical compounds to be tested with the enzyme, the plate was incubated for 10 min at a suitable temperature in a plate thermostat with orbital shaking at 600 rpm. Negative control wells contained all the above reagents except tested compound and kinase, and positive control wells contained all the above reagents except tested compounds. […] Subsequently, the plate was incubated for 1 h at 25 or 30 °C (depending on the PI3K isoform tested) in a plate thermostat with orbital shaking of the plate contents at 600 rpm. The reaction conditions are combined in the table below (Table 6).
Detection of ADP formed in the enzymatic reaction was then performed using ADP-Glo Kinase Assay™ (Promega, Madison, WI, USA). To the wells of a 96-well plate, 25 μL of ADP-Glo Reagent™ was added, and the plate was incubated for 40 min at 25 °C in a plate thermostat with orbital shaking at 600 rpm. Then 50 μL of Kinase Detection Reagent were added to each well, and the plate was incubated for 40 min at 25 °C in a plate thermostat with orbital shaking at 600 rpm. Once the incubation was complete, the luminescence intensity was measured using a Victor Light luminometer (Perkin Elmer, Inc., Waltham, MA, USA). IC50 values were determined based on luminescence intensity measured in wells containing tested compounds at different concentrations in relation to control wells. […] Each compound was tested at least in quadruplicates (4 wells) on two 96-well plates utilizing at least 4 wells for each control.

[2] = target: T2, PI3Kα (Homo sapiens, UniProt P42336); test: In vitro kinase inhibition assay for PI3K (ADP-Glo), PI3Kα; assay type: biochemical; settings: for IC50: recombinant kinase, ADP-Glo, mean of two independent experiments; for Fold Selectivity α/δ: ratio of IC50 PI3Kα to IC50 PI3Kδ
T2 construct: purchased Carna Biosciences
T2 sequence (P42336 whole entry): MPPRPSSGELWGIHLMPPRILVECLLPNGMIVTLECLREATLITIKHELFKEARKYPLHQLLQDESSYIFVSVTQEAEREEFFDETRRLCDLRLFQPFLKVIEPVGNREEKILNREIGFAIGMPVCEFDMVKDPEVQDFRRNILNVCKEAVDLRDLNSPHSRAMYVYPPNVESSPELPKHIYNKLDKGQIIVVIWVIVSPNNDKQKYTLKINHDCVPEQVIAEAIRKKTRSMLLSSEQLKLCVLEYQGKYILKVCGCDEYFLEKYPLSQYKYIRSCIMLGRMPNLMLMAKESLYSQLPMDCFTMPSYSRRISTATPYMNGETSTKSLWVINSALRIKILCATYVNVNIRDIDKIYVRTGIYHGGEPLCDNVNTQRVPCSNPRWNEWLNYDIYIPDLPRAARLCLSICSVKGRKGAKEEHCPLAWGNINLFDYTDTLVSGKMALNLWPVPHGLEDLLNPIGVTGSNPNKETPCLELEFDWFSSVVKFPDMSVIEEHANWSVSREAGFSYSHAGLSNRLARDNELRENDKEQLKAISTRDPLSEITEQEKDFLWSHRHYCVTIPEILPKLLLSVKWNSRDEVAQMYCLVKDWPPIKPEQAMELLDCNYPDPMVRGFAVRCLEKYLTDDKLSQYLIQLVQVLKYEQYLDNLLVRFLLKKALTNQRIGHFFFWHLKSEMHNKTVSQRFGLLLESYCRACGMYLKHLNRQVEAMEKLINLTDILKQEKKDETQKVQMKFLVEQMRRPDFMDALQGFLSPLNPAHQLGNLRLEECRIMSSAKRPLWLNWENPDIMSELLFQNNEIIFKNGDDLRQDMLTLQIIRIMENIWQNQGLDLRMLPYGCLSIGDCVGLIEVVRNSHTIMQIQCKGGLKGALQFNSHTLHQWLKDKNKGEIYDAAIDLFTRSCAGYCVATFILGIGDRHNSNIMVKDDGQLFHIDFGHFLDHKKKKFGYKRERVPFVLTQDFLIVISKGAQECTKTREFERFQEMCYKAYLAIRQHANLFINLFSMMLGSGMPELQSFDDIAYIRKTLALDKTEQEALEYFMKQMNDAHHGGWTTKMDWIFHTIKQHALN
T2 sequence (P27986 whole entry partner): as the sequence (P27986 whole entry) above
Procedure: Tested compounds were dissolved in 100% DMSO, and obtained solutions were serially diluted in 1× reaction buffer. The recombinant kinase solution was diluted in a reaction mixture comprising 5× reaction buffer, respective compound solution (1 mM sodium diacetate 4,5-bisphosphate phosphatidylinositol (PIP2) solution in 40 mM Tris buffer), and water. In a 96-wells plate, 5 μL of compound solutions and 15 μL of the kinase solution in the reaction mixture were added per well. To initiate the interaction of chemical compounds to be tested with the enzyme, the plate was incubated for 10 min at a suitable temperature in a plate thermostat with orbital shaking at 600 rpm. Negative control wells contained all the above reagents except tested compound and kinase, and positive control wells contained all the above reagents except tested compounds. The enzymatic reaction was initiated by adding 5 μL of 150 μM ATP solution. Subsequently, the plate was incubated for 1 h at 25 or 30 °C (depending on the PI3K isoform tested) in a plate thermostat with orbital shaking of the plate contents at 600 rpm. The reaction conditions are combined in the table below (Table 6).
Detection of ADP formed in the enzymatic reaction was then performed using ADP-Glo Kinase Assay™ (Promega, Madison, WI, USA). To the wells of a 96-well plate, 25 μL of ADP-Glo Reagent™ was added, and the plate was incubated for 40 min at 25 °C in a plate thermostat with orbital shaking at 600 rpm. Then 50 μL of Kinase Detection Reagent were added to each well, and the plate was incubated for 40 min at 25 °C in a plate thermostat with orbital shaking at 600 rpm. Once the incubation was complete, the luminescence intensity was measured using a Victor Light luminometer (Perkin Elmer, Inc., Waltham, MA, USA). IC50 values were determined based on luminescence intensity measured in wells containing tested compounds at different concentrations in relation to control wells. These values were calculated with Graph Pad 5.03 software by fitting the curve using non-linear regression. Each compound was tested at least in quadruplicates (4 wells) on two 96-well plates utilizing at least 4 wells for each control. Averaged results of inhibition activity respective to specific isoforms of PI3K kinases for tested compounds are presented as IC50 values in Table 1, Table 2, Table 3 and Table 4.

SMILES: Cc1cc2nc(-n3c(C)nc4ccccc43)cc(N3CCOCC3)n2n1 [Compound 5, 2-methyl-5-(2-methylbenzimidazol-1-yl)-7-(morpholin-4-yl)pyrazolo[1,5-a]pyrimidine]
IC50 ([1]; read-out: IC50 PI3Kδ): 3.56 µM
IC50 ([2]; IC50 PI3Kα): 35.1 µM
Fold Selectivity α/δ [2]: 9.9

SMILES: CCc1nc2ccccc2n1-c1cc(N2CCOCC2)n2nc(C)cc2n1 [Compound 6, 2-methyl-5-(2-ethylbenzimidazol-1-yl)-7-(morpholin-4-yl)pyrazolo[1,5-a]pyrimidine]
IC50 ([1]; read-out: IC50 PI3Kδ): 2.3 µM
IC50 ([2]; IC50 PI3Kα): 25.9 µM
Fold Selectivity α/δ [2]: 11

SMILES: Cc1cc2nc(-n3c(C(F)F)nc4ccccc43)cc(N3CCOCC3)n2n1 [Compound 7, 2-methyl-5-(2-difluoromethylbenzimidazol-1-yl)-7-(morpholin-4-yl)pyrazolo[1,5-a]pyrimidine]
IC50 ([1]; read-out: IC50 PI3Kδ): 0.47 µM and 0.475 µM
IC50 ([2]; IC50 PI3Kα): 1.06 µM
Fold Selectivity α/δ [2]: 2.2

SMILES: Cc1cc(Nc2cc(N3CCOCC3)n3nc(C)cc3n2)[nH]n1 [Compound 9, 3-methyl-N-[2-methyl-7-(morpholin-4-yl)pyrazolo[1,5-a]pyrimidin-5-yl]-1H-pyrazol-5-amine]
IC50 ([1]; read-out: IC50 PI3Kδ): 43.6 µM
IC50 ([2]; IC50 PI3Kα): > 60 µM
Fold Selectivity α/δ [2]: >1.4

SMILES: Cc1cc2nc(-c3cn[nH]c3)cc(N3CCOCC3)n2n1 [Compound 10, 2-methyl-7-(morpholin-4-yl)-5-(1H-pyrazol-4-yl)pyrazolo[1,5-a]pyrimidine]
IC50 ([1]; read-out: IC50 PI3Kδ): 12.7 µM
IC50 ([2]; IC50 PI3Kα): 36.2 µM
Fold Selectivity α/δ [2]: 2.9

SMILES: Cc1cc2nc(-c3ccc(N)nc3)cc(N3CCOCC3)n2n1 [Compound 11, 2-methyl-7-(morpholin-4-yl)-5-(2-aminopyridin-5-yl)pyrazolo[1,5-a]pyrimidine]
IC50 ([1]; read-out: IC50 PI3Kδ): 6.86 µM
IC50 ([2]; IC50 PI3Kα): 4.64 µM
Fold Selectivity α/δ [2]: 0.7

SMILES: Cc1cc2nc(-c3cccc4[nH]ncc34)cc(N3CCOCC3)n2n1 [Compound 12, 2-methyl-7-(morpholin-4-yl)-5-(1H-indazole-4-yl)pyrazolo[1,5-a]pyrimidine]
IC50 ([1]; read-out: IC50 PI3Kδ): 3.85 µM
IC50 ([2]; IC50 PI3Kα): 4.81 µM
Fold Selectivity α/δ [2]: 1.2

SMILES: Cc1cc2nc(-c3cccc4[nH]ccc34)cc(N3CCOCC3)n2n1 [Compound 13, 2-methyl-7-(morpholin-4-yl)-5-(1H-indole-4-yl)pyrazolo[1,5-a]pyrimidine]
IC50 ([1]; read-out: IC50 PI3Kδ): 0.772 µM
IC50 ([2]; IC50 PI3Kα): 23.5 µM
Fold Selectivity α/δ [2]: 30

SMILES: CS(=O)(=O)N1CCN(Cc2cc3nc(-c4cccc5[nH]ccc45)cc(N4CCOCC4)n3n2)CC1 [Compound 23, 5-(1H-indol-4-yl)-2-((4-(methyl-sulphonyl)piperazin-1-yl)methyl)-7-(morpholin-4-yl)pyrazolo[1,5-a]pyrimidine]
IC50 ([1]; read-out: IC50 PI3K δ): 0.402 µM
IC50 ([1]; read-out: IC50 PI3Kδ): 0.4 µM
IC50 ([2]; IC50 PI3K α): 2.35 µM
IC50 ([2]; IC50 PI3Kα): 2.35 µM
Fold Selectivity α/δ [2]: 5.8

IC50 ([1]; read-out: IC50 PI3K δ): 1.99 µM
SMILES: O[C@@H]1CCN(Cc2cc3nc(-c4cccc5[nH]ccc45)cc(N4CCOCC4)n3n2)C1 [Compound 25]

IC50 ([1]; read-out: IC50 PI3K δ): 2.21 µM
SMILES: O[C@H]1CCN(Cc2cc3nc(-c4cccc5[nH]ccc45)cc(N4CCOCC4)n3n2)C1 [Compound 26]

SMILES: O=S1(=O)CCN(Cc2cc3nc(-c4cccc5[nH]ccc45)cc(N4CCOCC4)n3n2)CC1 [Compound 27, 2-((1,1-dioxothiomorpholin-1-yl)-methyl)-5-(1H-indol-4-yl)-7-(morpholin-4-yl)pyrazolo[1,5-a]pyrimidine]
IC50 ([1]; read-out: IC50 PI3K δ): 0.266 µM
IC50 ([2]; IC50 PI3K α): 8.65 µM
Fold Selectivity α/δ [2]: 33

IC50 ([1]; read-out: IC50 PI3K δ): 1.07 µM
SMILES: c1cc(-c2cc(N3CCOCC3)n3nc(CN4CCOCC4)cc3n2)c2cc[nH]c2c1 [Compound 28, 5-(1H-indol-4-yl)-7-(morpholin-4-yl)-2-((morpholin-4-yl)methyl)pyrazolo[1,5-a]pyrimidine]

SMILES: CN1CCN(C2CCN(Cc3cc4nc(-c5cccc6[nH]ccc56)cc(N5CCOCC5)n4n3)CC2)CC1 [Compound 29, 5-(1H-indol-4-yl)-2-((4-(4-methylpiperazin-1-yl)piperidin-1-yl)methyl)-7-(morpholin-4-yl)pyrazolo[1,5-a]pyrimidine]
IC50 ([1]; read-out: IC50 PI3K δ): 0.052 µM
IC50 ([2]; IC50 PI3K α): 15.6 µM
Fold Selectivity α/δ [2]: 301

SMILES: CCNC(=O)NC1CCN(Cc2cc3nc(-c4cccc5[nH]ccc45)cc(N4CCOCC4)n3n2)CC1 [Compound 30, 3-ethyl-1-(1-((5-(1H-indol-4-yl)-7-(morpholin-4-yl)pyrazolo[1,5-a]pyrimidin-2-yl)methyl)piperidin-4-yl)urea]
IC50 ([1]; read-out: IC50 PI3K δ): 0.36 µM
IC50 ([2]; IC50 PI3K α): 14.2 µM
Fold Selectivity α/δ [2]: 39

IC50 ([1]; read-out: IC50 PI3K δ): 0.559 µM
SMILES: O=C(Nc1ccccc1)NC1CCN(Cc2cc3nc(-c4cccc5[nH]ccc45)cc(N4CCOCC4)n3n2)CC1 [Compound 31, 1-phenyl-3-(1-((5-(1H-indol-4-yl)-7-(morpholin-4-yl)pyrazolo[1,5-a]pyrimidin-2-yl)methyl)piperidin-4-yl)urea]

SMILES: COc1ccc(N2CCN(Cc3cc4nc(-c5cccc6[nH]ccc56)cc(N5CCOCC5)n4n3)CC2)cc1 [Compound 32, 5-(1H-indol-4-yl)-2-((4-(4-methoxyphenyl)piperazin-1-yl)-methyl)-7-(morpholin-4-yl)pyrazolo[1,5-a]pyrimidine]
IC50 ([1]; read-out: IC50 PI3K δ): 0.177 µM
IC50 ([2]; IC50 PI3K α): 8.79 µM
Fold Selectivity α/δ [2]: 50

SMILES: CN1CCN(Cc2cc3nc(-c4cccc5[nH]ccc45)cc(N4CCOCC4)n3n2)CC1 [Compound 33, 5-(1H-indol-4-yl)-2-((4-methyl-piperazin-1-yl)methyl)-7-(morpholin-4-yl)pyrazolo[1,5-a]pyrimidine]
IC50 ([1]; read-out: IC50 PI3K δ): 0.193 µM
IC50 ([2]; IC50 PI3K α): 42.4 µM
Fold Selectivity α/δ [2]: 220

SMILES: COC(=O)C1CCN(Cc2cc3nc(-c4cccc5[nH]ccc45)cc(N4CCOCC4)n3n2)CC1 [Compound 35, Methyl 1-((5-(1H-indol-4-yl)-7-(morpholin-4-yl)pyrazolo[1,5-a]pyrimidin-2-yl)methyl)piperidin-4-carboxylate]
IC50 ([1]; read-out: IC50 PI3K δ): 0.138 µM
IC50 ([2]; IC50 PI3K α): 8.46 µM
Fold Selectivity α/δ [2]: 61

SMILES: c1cc(-c2cc(N3CCOCC3)n3nc(CN4CCN(C5CCCC5)CC4)cc3n2)c2cc[nH]c2c1 [Compound 40, 2-((4-cyclopentylpiperazin-1-yl)methyl)-5-(1H-indol-4-yl)-7-(morpholin-4-yl)pyrazolo[1,5-a]pyrimidine]
IC50 ([1]; read-out: IC50 PI3K δ): 0.042 µM
IC50 ([2]; IC50 PI3K α): 13.8 µM
Fold Selectivity α/δ [2]: 329

SMILES: c1cc(-c2cc(N3CCOCC3)n3nc(CN4CCN(C5COC5)CC4)cc3n2)c2cc[nH]c2c1 [Compound 42]
IC50 ([1]; read-out: IC50 PI3K δ): 0.056 µM
IC50 ([2]; IC50 PI3K α): 18.7 µM
Fold Selectivity α/δ [2]: 334

SMILES: c1cc(-c2cc(N3CCOCC3)n3nc(CN4CC5CC4CN5C4COC4)cc3n2)c2cc[nH]c2c1 [Compound 43, 5-(1H-indol-4-yl)-2-(((1S, 4S)-2-(oxetan-3-yl)-2,5-diaza-bicyclo [2.2.1]hept-2-yl)methyl)-7-(morpholin-4-yl)pyrazolo[1,5-a]pyrimidine]
IC50 ([1]; read-out: IC50 PI3K δ): 0.071 µM
IC50 ([2]; IC50 PI3K α): 22.6 µM
Fold Selectivity α/δ [2]: 318

SMILES: c1cc(-c2cc(N3CCOCC3)n3nc(CN4CCN(CC5CC5)CC4)cc3n2)c2cc[nH]c2c1 [Compound 45, 2-((4-(cyclopropylmethyl)piperazin-1-yl)methyl)-5-(1H-indol-4-yl)-7-(morpholin-4-yl)pyrazolo[1,5-a]pyrimidine]
IC50 ([1]; read-out: IC50 PI3K δ): 0.029 µM
IC50 ([2]; IC50 PI3K α): 6.32 µM
Fold Selectivity α/δ [2]: 218
